Reference: US20100009970A1, “COMPOSITIONS AND METHODS FOR TREATMENT OF VIRAL DISEASES” (Combinatorx (Singapore) Pte. Ltd., priority 2008, published 2010)
Counter-ions that a name gives are not always drawn. Like-named read-outs stand apart in the source and are kept apart here.

What was measured:
[1] = test system: Huh7 cells expressing a subgenomic RNA replicon of Con1 (genotype 1b) sequence origin
in vitro = settings: human
[2] = test system: Huh7 cells expressing a subgenomic RNA replicon of Con1 (genotype 1b) sequence origin; assay: microbe, parasite or virus in culture; settings: Hepatitis C virus
[3] = Huh-7, read-out: IC50 (uM) [SG]
[4] = Huh-7, read-out: Max Effect@CC30 (inhibition)

Molecule: N#C/C(=C/c1ccc(O)c(O)c1)C(=O)NCc1ccccc1 [AG-490, tyrphostin AG-490, reference compound]
- IC50 [1]: 5.03 µM

Molecule: N-Tosyl-L-phenylalanine chloromethyl ketone [reference compound]
- IC50 [1]: 16.7 µM

Molecule: Nc1nc(-c2nn(Cc3ccccc3F)c3ncccc23)ncc1C1CC1 [Bay 41-2272, reference compound]
- IC50 [1]: 0.754 µM

Molecule: O=[N+]([O-])c1ccc2nc(N3CCNCC3)ccc2c1 [6-Nitroquipazine, reference compound]
- IC50 [1]: 16.4 µM

Molecule: Cc1ccc(S(=O)(=O)/C=C/C#N)cc1 [Bay 11-7082, reference compound]
- IC50 [1]: 15 µM

Molecule: C/C1=C2/[N-]C([C@H](CC(N)=O)[C@@]2(C)CCC(=O)NC[C@@H](C)OP(=O)([O-])O[C@H]2[C@@H](O)[C@@H](n3cnc4cc(C)c(C)cc43)O[C@@H]2CO)[C@]2(C)N=C(/C(C)=C3N=C(/C=C4N=C1[C@@H](CCC(N)=O)C\4(C)C)[C@@H](CCC(N)=O)[C@]\3(C)CC(N)=O)[C@@H](CCC(N)=O)[C@]2(C)CC(N)=O.[CH2-][C@H]1O[C@@H](n2cnc3c(N)ncnc32)[C@@H](O)[C@@H]1O.[Co+3] [Cobamamide, cobamamide, reference compound]
- IC50 [1]: 0.41 µM

Molecule: N#CC(C#N)=Cc1ccc(O)c(O)c1 [Tyrphostin 23, tyrphostin 23, reference compound]
- IC50 [1]: 14.6 µM

Molecule: CC1=C(/C=C/C(C)O)C(C)(C)CCC1 (stereo not drawn) [Beta-Ionol]
- IC50 [1]: 21 µM

Molecule: CCCCC1C(=O)N(c2ccccc2)N(c2ccc(O)cc2)C1=O (stereo not drawn) [Oxyphenbutazone (e.g., hydrate), oxyphenbutazone, reference compound]
- IC50 [1]: 4.17 µM

Molecule: COc1ccc(-c2nc(C(=O)N3CCN(C)CC3)sc2-c2ccc(OC)cc2)cc1 [FR122047, reference compound]
- IC50 [1]: 23 µM

Molecule: O=C(O)CN(CC(=O)O)c1ccccc1OCCOc1ccccc1N(CC(=O)O)CC(=O)O [1,2-Bis-(2-aminophenoxy)ethane N,N,N,N,-tetreacetic acid, reference compound]
- IC50 [1]: 14.5 µM

Molecule: COc1ccc(CCN(C)CCC[C@](C#N)(c2ccc(OC)c(OC)c2)C(C)C)cc1OC [R(+)-Verapamil (e.g., hydrochloride), R(+)-Verapamil, reference compound]
- IC50 [1]: 15.7 µM

Molecule: Cc1ccc(NCCCc2ccccc2)c(N)c1 [JSH-23, reference compound]
- IC50 [1]: 2.55 µM

Molecule: OCCN1CCN(CC/C=C2/c3ccccc3Sc3ccc(C(F)(F)F)cc32)CC1 [Flupentixol (e.g., dihydrochloride), Flupentixol, reference compound]
- IC50 [1]: 3.6 µM

Molecule: N#C/C(=C\c1ccc(O)c(O)c1)C(N)=O [Tyrphostin 46, tyrphostin A46, reference compound]
- IC50 [1]: 21.2 µM

Molecule: C[C@]12CC[C@H]3[C@@H](CCC4=CC(=O)CC[C@@]43C)[C@@H]1CC[C@@H]2C(=O)CO [Desoxycorticosterone (e.g., acetate), deoxycorticosterone, reference compound]
- IC50 [1]: 14.7 µM

Molecule: COc1cc2ncnc(Nc3cccc(Cl)c3)c2cc1OC [Tyrphostin Ag 1478, tyrphostin AG 1478, reference compound]
- IC50 [1]: 3.41 µM

Molecule: O=c1cc(N2CCOCC2)oc2c1ccc1ccccc12 [DNA-PK inhibitor II, reference compound]
- IC50 [1]: 6.52 µM

Molecule: CC(C)(C)c1cc(O)c(C(C)(C)C)cc1O [BHQ, reference compound]
- IC50 [1]: 23.3 µM

Molecule: CCCCC(CC)COC(=O)c1ccc(N(C)C)cc1 (stereo not drawn) [Padimate O]
- IC50 [1]: 5.44 µM

Molecule: O=C1C(Cl)=C(NCCN2CCOCC2)C(=O)c2ncccc21 [NSC 663284, reference compound]
- IC50 [1]: 0.614 µM

Molecule: CC(=O)ON=C1C(=O)N(Cc2cc(Cl)ccc2Cl)c2ccc(Cl)cc21 [UCH-L1 inhibitor, reference compound]
- IC50 [1]: 17.2 µM

Molecule: N#CC(C#N)=Cc1cc(O)c(O)c(O)c1 [Tyrphostin 25, tyrphostin 25, reference compound]
- IC50 [1]: 16 µM

Molecule: CC(=O)[O][Pt]([NH2])([Cl])([Cl])([NH]C1CCCCC1)[O]C(C)=O [Satraplatin, reference compound]
- IC50 [1]: 4.8 µM

Molecule: CC(=O)O[C@@]12CO[C@@H]1C[C@H](O)[C@@]1(C)C(=O)[C@H](O)C3=C(C)[C@@H](O)C[C@@](O)([C@@H](OC(=O)c4ccccc4)[C@H]21)C3(C)C [10-Deacetylbaccatine Iii, reference compound]
- IC50 [1]: 10.3 µM

Molecule: Nc1ccc(C(=O)O)c(O)c1 [P-Aminosalicylic acid, reference compound]
- IC50 [1]: 13.2 µM

Molecule: Cc1cc(N)c2ccccc2c1O [Vitamin K5]
- IC50 [1]: 19.6 µM

Molecule: CC(=O)NCc1ccc2c(c1)[C@@H](N(C)C)CC[C@H]2c1ccc(Cl)c(Cl)c1 [N-(((5S,8S)-5-(3,4-dichlorophenyl)-8-(dimethylamino)-5,6,7,8-tetrahydronaphthalen-2-yl)methyl)acetamide]
- CC50 (in vitro; CC50 (uM) [SG]): 19.1 µM
- IC90 ([2]; Huh-7): 9.72 µM
- IC50 [2, 3]: 4.45 µM
- Emax [2, 4]: 92%

Molecule: CNc1ccc(Oc2ccc(SC)c(C)c2)c(CN(C)C)c1 [Compound 25, 3-((dimethylamino)methyl)-N-methyl-4-(3-methyl-4-(methylthio)phenoxy)aniline]
- CC50 (in vitro; CC50 (uM) [SG]): 46.9 µM
- IC50 [2, 3]: 20 µM

Molecule: CCN(CC)c1ccc(C(=C2C=CC(=[N+](CC)CC)C=C2)c2cc(S(=O)(=O)O)ccc2S(=O)(=O)[O-])cc1 [Isosulfan Blue, reference compound]
- IC50 [1]: 24.9 µM

Molecule: CSc1ccc(Oc2ccc(Br)cc2CN(C)C)cc1 [Compound 41, 1-(5-bromo-2-(4-(methylthio)phenoxy)phenyl)-N,N-dimethylmethanamine]
- CC50 (in vitro; CC50 (uM) [SG]): > 50 µM
- IC90 ([2]; Huh-7): 28.8 µM
- IC50 [2, 3]: 25.8 µM
- Emax [2, 4]: 94.7%

Molecule: CCCCC(=O)Nc1ccc2c(c1)[C@@H](NC)CC[C@H]2c1ccc(Cl)c(Cl)c1 [Sertraline A-Ring Reverse Pentanamide, N-((5S,8S)-5-(3,4-dichlorophenyl)-8-(methylamino)-5,6,7,8-tetrahydronaphthalen-2-yl)pentanamide]
- CC50 (in vitro; CC50 (uM)): 4.32 µM
- CC50 (in vitro; CC50 (uM) [SG]): 4.32 µM
- IC50 ([2]; Huh-7): 3.68 µM
- IC90 ([2]; Huh-7): 5.03 µM
- IC50 [2, 3]: 3.67 µM
- Emax ([2]; Huh-7, read-out: Max Effect @CC30 (inhibition)): 33.1%
- Emax [2, 4]: 33.1%

Molecule: CCC(Cc1c(I)cc(I)c(O)c1I)C(=O)O (stereo not drawn) [Iophenoxic acid, reference compound]
- IC50 [1]: 10.6 µM

Molecule: C[C@@H]1C[C@H]2[C@@H]3CCC4=CC(=O)C=C[C@]4(C)[C@@]3(Cl)[C@@H](O)C[C@]2(C)[C@@]1(O)C(=O)CCl [Mometasone (e.g., furoate), mometasone, reference compound]
- IC50 [1]: 11.3 µM

Molecule: C/C1=C2/[N-][C@H]([C@H](CC(N)=O)[C@@]2(C)CCC(=O)NC[C@H](C)OP(=O)([O-])O[C@H]2[C@@H](O)[C@@H](n3cnc4cc(C)c(C)cc43)O[C@@H]2CO)[C@]2(C)N=C(/C(C)=C3N=C(/C=C4N=C1[C@@H](CCC(N)=O)C\4(C)C)[C@@H](CCC(N)=O)[C@]\3(C)CC(N)=O)[C@@H](CCC(N)=O)[C@]2(C)CC(N)=O.[CH3-].[Co+3] [Mecobalamin, mecobalamin, reference compound]
- IC50 [1]: 0.179 µM

Molecule: CSc1ccc(Oc2ccccc2CN(C)C)cc1C [Compound 8, N,N-dimethyl-1-(2-(3-methyl-4-(methylthio)phenoxy)phenyl)methanamine]
- CC50 (in vitro; CC50 (uM) [SG]): 36 µM
- IC50 [2, 3]: 12.2 µM
- Emax [2, 4]: 52.3%

Molecule: C/C1=C2/[N-][C@H]([C@H](CC(N)=O)[C@@]2(C)CCC(=O)NC[C@@H](C)OP(=O)([O-])O[C@H]2[C@@H](O)[C@@H](n3cnc4cc(C)c(C)cc43)O[C@@H]2CO)[C@]2(C)N=C(/C(C)=C3N=C(/C=C4N=C1[C@@H](CCC(N)=O)C\4(C)C)[C@@H](CCC(N)=O)[C@]\3(C)CC(N)=O)[C@@H](CCC(N)=O)[C@]2(C)CC(N)=O.[Co+3].[OH-] [Hydroxocobalamin, hydroxocobalamin, reference compound]
- IC50 [1]: 1.33 µM

Molecule: CSc1ccc(Oc2ccc(S(N)(=O)=O)cc2CNC[C@H](C)O)cc1C [Compound 69, (S)-3-((2-hydroxypropylamino)methyl)-4-(3-methyl-4-(methylthio)phenoxy)benzenesulfonamide]
- CC50 (in vitro; CC50 (uM) [SG]): > 50 µM
- IC90 ([2]; Huh-7): 10.4 µM
- IC50 [2, 3]: 3.54 µM

Molecule: CSc1ccc(Oc2ccc(S(N)(=O)=O)cc2CN2CCC[C@H]2CO)cc1C [Compound 103, (S)-3-((2-(hydroxymethyl)pyrrolidin-1-yl)methyl)-4-(3-methyl-4-(methylthio)phenoxy)benzenesulfonamide]
- CC50 (in vitro; CC50 (uM) [SG]): > 50 µM
- IC90 ([2]; Huh-7): 17.6 µM
- IC50 [2, 3]: 6.88 µM

Molecule: CSc1ccc(Oc2ccc(S(N)(=O)=O)cc2CN2CCNCC2)cc1C [Compound 111, 4-(3-methyl-4-(methylthio)phenoxy)-3-(piperazin-1-ylmethyl)benzenesulfonamide]
- CC50 (in vitro; CC50 (uM) [SG]): 46.3 µM
- IC90 ([2]; Huh-7): 22.6 µM
- IC50 [2, 3]: 7.12 µM

Molecule: CSc1ccc(Oc2ccc(S(N)(=O)=O)cc2CN2CCN(c3ccncc3)CC2)cc1C [Compound 91, 4-(3-methyl-4-(methylthio)phenoxy)-3-((4-(pyridin-4-yl)piperazin-1-yl)methyl)benzenesulfonamide]
- CC50 (in vitro; CC50 (uM) [SG]): 9.86 µM
- IC50 [2, 3]: 4.91 µM

Molecule: Nc1ccccc1NC(=O)CCCCCCC(=O)Nc1ccccc1 [CAY10433, reference compound]
- IC50 [1]: 7.88 µM

Molecule: CN(C)[C@H]1CC[C@@H](c2ccc(Cl)c(Cl)c2)c2ccc(NC(=O)c3ccccc3)cc21 [N-((5S,8S)-5-(3,4-dichlorophenyl)-8-(dimethylamino)-5,6,7,8-tetrahydronaphthalen-2-yl)benzamide]
- CC50 (in vitro; CC50 (uM) [SG]): 12.5 µM
- IC50 [2, 3]: 9.41 µM

Molecule: CSc1ccc(Nc2ccc(S(N)(=O)=O)cc2CN(C)C)cc1C [Compound 108, 3-((dimethylamino)methyl)-4-(3-methyl-4-(methylthio)phenylamino)benzensulfonamide]
- CC50 (in vitro; CC50 (uM) [SG]): 44.9 µM
- IC90 ([2]; Huh-7): 17 µM
- IC50 [2, 3]: 2.64 µM

Molecule: CSc1ccc(Oc2ccc(S(N)(=O)=O)cc2CN(C)CCN(C)C)cc1C [Compound 97, 3-(((2-(dimethylamino)ethyl)(methyl)amino)methyl)-4-(3-methyl-4-(methylthio)phenoxy)benzenesulfonamide]
- CC50 (in vitro; CC50 (uM) [SG]): 43.3 µM
- IC90 ([2]; Huh-7): 14 µM
- IC50 [2, 3]: 12.4 µM
